Legend:
Format in all cases: physicochemical
[1] = Thermodynamic stability of the crystalline form; conditions: at least between 20° C. and 60° C.
Source text: The XRPD pattern can be obtained by following protocols known in the field.

[2] = Solubility of the crystalline form in aqueous media, simulated fluids and organic solvents; conditions: in the presence of surfactants (e.g., Tween-80, sodium dodecyl sulfate, dioctyl sulfosuccinate, Pluronic F68) and cyclodextrins
Experimental: Solubility in simulated gastric fluid (SGF), fasted state simulated intestinal fluid (FaSSIF), and fed state simulated intestinal fluid (FeSSIF) was 0.019 mg/ml, 0.006 mg/mL, and 0.022 mg/mL, respectively. Solubility increased 50-100-fold in the presence of surfactants (e.g., Tween-80, sodium dodecyl sulfate, dioctyl sulfosuccinate, or Pluronic F68) and cyclodextrins; however it was still rather low.

[3] = Stability in suspension vehicle and parenteral formulation; conditions: 0.5% HPC/1% Tween 80, up to 5 weeks at RT
Experimental: For parenteral administration, a 30% Kleptose formulation (1.5 mg/ml, physiologic osmolality, pH 6.2), with a stability of at least 4 weeks at 40° C. was developed.

[4] = Preliminary forced degradation study (acidic, basic, oxidative, photolytic stress) and excipient compatibility
Experimental: (§1) Stability: Preliminary forced degradation study of the crystalline form of the free base of the compound of Formula I in acidic, basic, oxidative, and photolytic stress conditions was conducted to investigate the viability of the crystalline form in various stress conditions. Since the solubility of the compound of Formula I was low in the standard solvent ethanol, ethanol was replaced by N-methyl-2-pyrrolidone (NMP).
The crystalline form of the free base of the compound of Formula I was stable for up to 8 days in solid state at 80° C. and in solution at pH 3 to pH 7 at RT. […] The crystalline form was stable after exposure to light in solid state.

[5] = Preliminary solid state stability, UPLC analysis after storage
Experimental: as §1
A defined amount of the crystalline form of the free base of the compound of Formula I (0.2-0.8 mg) was weighed into a 1.8 mL HPLC vial and stored open (75% RH) or closed (ambient) at the temperature and the time indicated. After incubation, compound was dissolved in 1-1.5 mL NMP to a final concentration of 0.2-0.5 mg/mL and submitted to UPLC analysis (254 nm).

Compound: Cn1ncc(C(=O)N2CCOCC2)c1C(=O)Nc1ccn2nc(-c3ccccc3)nc2c1 [1-methyl-4-(morpholine-4-carbonyl)-N-(2-phenyl[1,2,4]triazolo[1,5-a]pyridin-7-yl)-1H-pyrazole-5-carboxamide]
- Thermodynamic stability [1]: thermodynamically stable
- Solubility increase [2]: 50-100 fold
- Particle growth and hydrate formation in suspension vehicle [3]: only minor particle growth and no hydrate formation
- Stability in suspension vehicle [3]: stable
- Excipient compatibility (CompaS assay) [4]: compatible with almost all excipients
- Stability towards oxidation ([4]; 1 day): stable
- Stability towards daylight ([4]; in solution): stable
- Stability in solution ([4]; in solution at pH 3 to pH 7 at RT, up to 8 days): stable
- Stability in solution at higher or lower pH ([4]; in solution, pH higher than 7 or lower than 3): degradation was observed
- Stability in the Suntest ([4]; in solution, time dependent): moderately stable to unstable
- Stability towards oxidation ([4]; prolonged exposure): some sensitivity
- Stability after exposure to light ([4]; solid state): stable
- Stability in solid state ([4]; solid state at 80° C., up to 8 days): stable
- Degradation products ([5]; solid state at various temperatures): < 0.5%
- UPLC analysis (Area % main peak) ([5]; solid state, 4 w, 4° C.): 100 Area %
- UPLC analysis (Area % main peak) ([5]; solid state, 4 w, 40° C.): 100 Area %
- UPLC analysis (Area % main peak) ([5]; solid state, 4 w, 40° C., 75% RH): 100 Area %
- UPLC analysis (Area % main peak) ([5]; solid state, 4 w, 60° C.): 100 Area %
- UPLC analysis (Area % main peak) ([5]; solid state, 4 w, RT): 100 Area %
- Time stable in solid state ([5]; solid state, 40-60° C.): at least 4 weeks
- UPLC analysis (Area % main peak) ([5]; solid state, 1 h, 80° C.): 100 Area %
- UPLC analysis (Area % main peak) ([5]; solid state, 1 d, 80° C.): 100 Area %
- UPLC analysis (Area % main peak) ([5]; solid state, 8 d, 80° C.): 100 Area %
